From article PMC9323974, “Palladium(II) Complexes of Substituted Salicylaldehydes: Synthesis, Characterization and Investigation of Their Biological Profile” (Pharmaceuticals, 2022)
Several values for one entry are separate records, joined by “and”; a condition that tells them apart may be missing. Equal values may be shown once. Read-outs that look alike come from different tables or passages of the source.

Experiments:
CT DNA = conditions: cited from earlier work
EB-DNA adduct (CT DNA) = conditions: cited from earlier work
BSA [1] = target: T1, BSA (Bos taurus, UniProt P02769); conditions: cited from earlier work
T1 construct: purchased Sigma-Aldrich Co
T1 sequence (P02769 25-607): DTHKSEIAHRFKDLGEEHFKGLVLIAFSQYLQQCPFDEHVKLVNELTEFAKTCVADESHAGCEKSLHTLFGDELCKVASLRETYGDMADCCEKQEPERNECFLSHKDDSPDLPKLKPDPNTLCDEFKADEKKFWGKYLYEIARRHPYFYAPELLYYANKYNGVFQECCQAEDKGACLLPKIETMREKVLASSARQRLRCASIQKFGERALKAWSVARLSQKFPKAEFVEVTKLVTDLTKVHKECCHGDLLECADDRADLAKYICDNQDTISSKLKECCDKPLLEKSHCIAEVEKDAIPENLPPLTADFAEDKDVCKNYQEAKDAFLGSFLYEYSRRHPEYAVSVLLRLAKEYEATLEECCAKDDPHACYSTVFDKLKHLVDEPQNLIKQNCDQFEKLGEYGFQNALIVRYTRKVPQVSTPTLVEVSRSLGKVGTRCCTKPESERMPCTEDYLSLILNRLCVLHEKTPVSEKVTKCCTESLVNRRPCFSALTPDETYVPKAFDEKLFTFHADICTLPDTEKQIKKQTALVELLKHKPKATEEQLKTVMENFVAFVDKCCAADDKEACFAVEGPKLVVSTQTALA

BSA [2] = target: T1, BSA; conditions: cited from earlier work; remark: listed apart in the source
[3] = cited from earlier work
HSA [4] = target: T2, HSA (Homo sapiens, UniProt P02768); conditions: cited from earlier work
T2 construct: purchased Sigma-Aldrich Co
T2 sequence (P02768 25-609): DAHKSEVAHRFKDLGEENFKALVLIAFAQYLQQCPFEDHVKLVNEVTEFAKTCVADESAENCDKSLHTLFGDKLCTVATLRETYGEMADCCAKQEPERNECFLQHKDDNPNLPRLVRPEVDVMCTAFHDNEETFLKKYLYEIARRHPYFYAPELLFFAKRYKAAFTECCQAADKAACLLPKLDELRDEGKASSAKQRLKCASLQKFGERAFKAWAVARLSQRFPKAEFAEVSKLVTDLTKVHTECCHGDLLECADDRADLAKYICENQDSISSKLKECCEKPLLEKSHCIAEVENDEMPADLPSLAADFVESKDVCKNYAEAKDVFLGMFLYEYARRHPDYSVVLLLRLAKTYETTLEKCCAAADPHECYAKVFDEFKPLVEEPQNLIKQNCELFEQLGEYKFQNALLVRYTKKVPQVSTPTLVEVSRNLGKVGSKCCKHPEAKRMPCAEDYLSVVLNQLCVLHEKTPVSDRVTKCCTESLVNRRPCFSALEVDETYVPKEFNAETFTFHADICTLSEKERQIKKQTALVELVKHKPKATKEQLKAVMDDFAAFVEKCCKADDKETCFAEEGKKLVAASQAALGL

[5] = cited from earlier work; remark: listed apart in the source
HSA [6] = target: T2, HSA; conditions: cited from earlier work; remark: listed apart in the source
[7] = tested on: Escherichia coli NCTC 29212; test: MIC determination; assay type: cell-based
Description: (§1) S2 Antibacterial activity
(§2) The antimicrobial activity of the compounds was evaluated by determining their respective MIC values towards two Gram–(–) (Escherichia coli NCTC 29212 (E. coli) and Xanthomonas campestris ATCC 1395 (X. campestris)) and two Gram–(+) (Staphylococcus aureus ATCC 6538 (S. aureus) and Bacillus subtilis ATCC 6633 (B. subtilis)) bacterial species. Cultures of these microbial strains were grown on a rich selective agar medium and stored at 4°C. The selective media used were Nutrient Agar or Broth for B. subtilis and S. aureus, Yeast Mold Agar or Broth for X. campestris and Luria Agar or Broth for E. coli. Cells picked from the surface of the stored cultures were used to initiate liquid pre–cultures of the same selective medium at an initial turbidity of roughly 1 McFarland unit. Pre–cultures were incubated for 24 h in a rotary shaking incubator and subsequently they were used to inoculate the test cultures used for the determination of MIC at an initial turbidity of 0.5 McFarland units. The test cultures consisted of Mueller –Hinton broth (Deben Diagnostics Ltd) containing different concentrations of the compounds.
(§3) Different concentrations were achieved as follows: the compounds were freshly dissolved in DMSO to a concentration of 1 mg mL–1 and they were diluted with DMSO, using the method of progressive double dilution. Therefore, working solutions with decreasing concentrations of the compounds under investigation were achieved. The working solutions were subsequently diluted to the final desired concentration by addition to the growth medium at a proportion of 2:98. MIC values were determined as the lowest concentrations of the tested compounds that inhibited visible growth of each respective organism after a 24 h incubation [ S3]. Bacterial growth was determined by measuring the turbidity of appropriately diluted cultures at 600 nm with reference to equally diluted sterile growth medium and the inhibition achieved was calculated by comparing the turbidity of each culture to the average of the turbidity of three non–inhibited cultures. All test cultures were grown in triplicates and for the determination of MIC, growth had to be inhibited in at least two cultures of the triplicate. Incubation temperature at all stages was 37°C except for X. campestris that was cultivated at 28°C [S4].

[8] = tested on: Bacillus subtilis ATCC 6633; test: MIC determination; assay type: cell-based
Description: as §1, §2, §3

[9] = tested on: Staphylococcus aureus ATCC 6538; test: MIC determination; assay type: cell-based
Description: as §1, §2, §3

[10] = tested on: Xanthomonas campestris ATCC 1395; test: MIC determination; assay type: cell-based; conditions: Xanthomonas campestris, ATCC1395, 24 h, read-out: MIC X. campestris
Description: as §1, §2, §3

[11] = cited from earlier work; remark: listed apart in the source
DPPH radical scavenging = conditions: compound 0.1 mM
Description: (§4) S1 Antioxidant biological assay
The antioxidant activity of the compounds was evaluated via their ability to scavenge in
vitro free radicals such as DPPH and ABTS and to reduce H2O2. All the experiments were carried
S1.1 Determination of the reducing activity of the stable radical DPPH
To an ethanolic solution of DPPH (0.1 mM) an equal volume solution of the compounds
(0.1 mM) in ethanol was added. Absolute ethanol was also used as control solution. The absorbance
at 517 nm was recorded at room temperature after 30 and 60 min, in order to examine the possible
existence of a potential time–dependence of the DPPH radical scavenging activity [S1]. The DPPH–
scavenging activity of the compounds was expressed as the percentage reduction of the absorbance
values of the initial DPPH solution (DPPH%). NDGA and BHT were used as reference compounds. […]

[12] = Reduction of hydrogen peroxide; conditions: compound 0.1 mM
Description: as §4
(§5) The antioxidant activity of the compounds was evaluated via their ability to scavenge in […]
(§6) vitro free radicals such as DPPH and ABTS and to reduce H2O2. […]
S1.3 Reduction of hydrogen peroxide
The ability of the compounds to reduce hydrogen peroxide (H2O2) was estimated according […]
to the method described in the literature [S2]. The reaction mixture contained 20 μL of each of the […]
tested compounds (0.1 mM) and 5 μL H 2O2 solution (40 mM) in phosphate buffer (50 mM, pH 7.4).
The absorbance was measured at 230 nm after 10 min. The antioxidant activity (reduction of […]

[13] = tested on: S. aureus, B. subtilis, E. coli, X. campestris; test: MIC stated for all tested bacterial strains; assay type: cell-based; conditions: all tested microbes
Description: as §1, §2, §3

[14] = ABTS radical cation scavenging; conditions: compound 0.1 mM
Description: as §4, §5, §6
S1.2 Assay of radical cation ABTS–scavenging activity
The ABTS assay was performed to determine the activity of the compounds to scavenge the […]
radical cation ABTS. Initially, a water solution of ABTS was prepared (2 mM). ABTS radical cation […]
(ABTS+·) was produced by the reaction of ABTS stock solution with potassium persulfate (0.17 […]
mM) and the mixture was stored in the dark at room temperature for 12–16 h before its use. The […]
ABTS was oxidized incompletely because the stoichiometric reaction ratio of ABTS and potassium […]
persulfate is 1:0.5. The absorbance became maximal and stable only after more than 6 h of reaction […]
although the oxidation of the ABTS started immediately. The radical was stable in this form for […]
more than 2 days when allowed to stand in the dark at room temperature. Afterwards, the ABTS+· […]
solution was diluted in ethanol to an absorbance of 0.70 at 734 nm and 10 μL of diluted compounds or standards (0.1 mM) in DMSO were added. The absorbance was recorded out exactly 1 min after […]
initial mixing [S1]. The ABTS radical scavenging activity was expressed as the percentage inhibition of the absorbance of the initial ABTS solution (ABTS%). […]

In the case of `O=Cc1cc(Br)cc(Br)c1O` [3,5-diBr-saloH, 3,5-dibromo-salicylaldehyde], the “Kb (DNA-binding constant)” value (CT DNA) is listed as 3.71 (±0.14) × 10^5 M^−1, the “KSV (Stern–Volmer constant), EB-DNA” value (EB-DNA adduct (CT DNA)) is listed as 3.95 (±0.10) × 10^4 M^−1 and the “kq (EB-DNA quenching constant)” value (EB-DNA adduct (CT DNA)) is listed as 1.72 (±0.04) × 10^12 M^−1s^−1. For the same compound, the “ΔΙ/Ι0 (%) EB-DNA fluorescence quenching” value (EB-DNA adduct (CT DNA)) was 46.6%, the “BSA-binding constant K, Marker: Ibuprofen” value (BSA [1]) was 7.11 (±0.29) × 10^5 M^−1 and the “BSA-binding constant K, No Marker” value (BSA [1]) was 2.97 (±0.16) × 10^6 M^−1. The “BSA-binding constant K, Marker: Warfarin” value (BSA [1]) was 2.84 (±0.10) × 10^5 M^−1, the “K BSA-binding constant” value (BSA [2]) was 2.97 (±0.16) × 10^6 M^−1 and the “kq BSA-quenching constant” value (BSA [2]) was 3.65 (±0.25) × 10^13 M^−1 s^−1. For the same compound, the “DPPH% (30 min)” value [3] was 7.97 ± 0.53%, the “DPPH% (60 min)” value [3] was 10.22 ± 0.30% and the “HSA-binding constant K, Marker: Ibuprofen” value (HSA [4]) was 4.56 (±0.37) × 10^4 M^−1. For the same compound, the “HSA-binding constant K, No Marker” value (HSA [4]) was 4.04 (±0.30) × 10^5 M^−1, the “HSA-binding constant K, Marker: Warfarin” value (HSA [4]) was 1.23 (±0.05) × 10^5 M^−1 and the ABTS% [5] was 16.55 ± 0.31%. For the same compound, the “K HSA-binding constant” value (HSA [6]) was 4.04 (±0.30) × 10^5 M^−1, the “kq HSA-quenching constant” value (HSA [6]) was 1.72 (±0.06) × 10^13 M^−1 s^−1 and the MIC ([7]; Escherichia coli, NCTC29212, 24 h, read-out: MIC E. coli) was 50 µg/mL and 179 µM. For the same compound, the MIC ([8]; Bacillus subtilis, ATCC6633, 24 h, read-out: MIC B. subtilis) was 25 µg/mL and 89 µM, the MIC ([9]; Staphylococcus aureus, ATCC6538, 24 h, read-out: MIC S. aureus) was 25 µg/mL and 89 µM and the MIC [10] was 25 µg/mL and 89 µM. For the same compound, the H2O2% [11] was 76.05 ± 1.51%.
For `O=Cc1cc(Cl)cc(Cl)c1O` [3,5-diCl-saloH, 3,5-dichloro-salicylaldehyde], the “Kb (DNA-binding constant)” value (CT DNA) is listed as 5.36 (±0.15) × 10^5 M^−1, the “KSV (Stern–Volmer constant), EB-DNA” value (EB-DNA adduct (CT DNA)) is listed as 3.56 (±0.09) × 10^4 M^−1 and the “kq (EB-DNA quenching constant)” value (EB-DNA adduct (CT DNA)) is listed as 1.55 (±0.04) × 10^12 M^−1s^−1. The “ΔΙ/Ι0 (%) EB-DNA fluorescence quenching” value (EB-DNA adduct (CT DNA)) was 43.2%, the “BSA-binding constant K, Marker: Ibuprofen” value (BSA [1]) was 1.35 (±0.55) × 10^5 M^−1 and the “BSA-binding constant K, No Marker” value (BSA [1]) was 1.64 (±0.10) × 10^6 M^−1. The “BSA-binding constant K, Marker: Warfarin” value (BSA [1]) was 5.09 (±0.09) × 10^5 M^−1, the “K BSA-binding constant” value (BSA [2]) was 1.64 (±0.10) × 10^6 M^−1 and the “kq BSA-quenching constant” value (BSA [2]) was 1.47 (±0.09) × 10^13 M^−1 s^−1. For the same compound, the “DPPH% (30 min)” value [3] was 15.68 ± 0.15%, the “DPPH% (60 min)” value [3] was 18.80 ± 0.52% and the “HSA-binding constant K, Marker: Ibuprofen” value (HSA [4]) was 1.87 (±0.08) × 10^5 M^−1. The “HSA-binding constant K, No Marker” value (HSA [4]) was 6.33 (±0.14) × 10^5 M^−1, the “HSA-binding constant K, Marker: Warfarin” value (HSA [4]) was 1.52 (±0.07) × 10^5 M^−1 and the ABTS% [5] was 84.89 ± 0.16%. For the same compound, the “K HSA-binding constant” value (HSA [6]) was 6.33 (±0.14) × 10^5 M^−1, the “kq HSA-quenching constant” value (HSA [6]) was 7.11 (±0.32) × 10^12 M^−1 s^−1 and the MIC ([7]; Escherichia coli, NCTC29212, 24 h; read-out: MIC E. coli) was 50 µg/mL. For the same compound, the MIC ([7]; Escherichia coli, NCTC29212; 24 h, value in parentheses; read-out: MIC E. coli) was 262 µM, the MIC ([8]; Bacillus subtilis, ATCC6633, 24 h; read-out: MIC B. subtilis) was 50 µg/mL and the MIC ([8]; Bacillus subtilis, ATCC6633; 24 h, value in parentheses; read-out: MIC B. subtilis) was 262 µM. The MIC ([9]; Staphylococcus aureus, ATCC6538, 24 h; read-out: MIC S. aureus) was 50 µg/mL, the MIC ([9]; Staphylococcus aureus, ATCC6538; 24 h, value in parentheses; read-out: MIC S. aureus) was 262 µM and the MIC [10] was 50 µg/mL and 262 µM. The H2O2% [11] was 79.92 ± 0.34%.
With `Cc1cc(C(C)(C)C)c(O)c(C(C)(C)C)c1` [BHT, butylated hydroxytoluene, reference compound] the “DPPH% (30 min)” value (DPPH radical scavenging) was 61.30 ± 1.16% and the “DPPH% (60 min)” value (DPPH radical scavenging) was 79.78 ± 1.12%.
In the case of `CC[n+]1c(-c2ccccc2)c2cc(N)ccc2c2ccc(N)cc21.[Br-]` [EB, 3,8-diamino-5-ethyl-6-phenyl-phenanthridinium bromide], the “Kb (DNA-binding constant)” value (CT DNA; classical intercalator) is listed as 1.23 (±0.07) × 10^5 M^−1.
With `O=C1O[C@H]([C@@H](O)CO)C(O)=C1O` [L-ascorbic acid, reference compound] the H2O2% [12] was 60.80 ± 0.20%.
With `CC(Cc1ccc(O)c(O)c1)C(C)Cc1ccc(O)c(O)c1` (stereo not shown) [NDGA, nordihydroguaiaretic acid, reference compound] the “DPPH% (30 min)” value (DPPH radical scavenging) was 87.08 ± 0.12% and the “DPPH% (60 min)” value (DPPH radical scavenging) was 87.47 ± 0.12%.
For `CC(=O)[O-].CC(=O)[O-].[Pd+2]` [Pd(CH3COO)2], the MIC [13] was over 200 µg/mL.
Compound `Cc1c(C)c2c(c(C)c1O)CCC(C)(C(=O)O)O2` (stereo not shown) [Trolox, 6-hydroxy-2,5,7,8-tetramethylchromane-2-carboxylic acid, reference compound] has an ABTS% [14] of 98.10 ± 0.48%.
